{"source": "paper PMC3833957", "about": "“Macroscopic Kinetics of Pentameric Ligand Gated Ion Channels: Comparisons between Two Prokaryotic Channels and One Eukaryotic Channel” (PLoS ONE, 2013)", "target": "T1, ELIC (Dickeya chrysanthemi, UniProt P0C7B7)", "T1 sequence (P0C7B7 1-321)": "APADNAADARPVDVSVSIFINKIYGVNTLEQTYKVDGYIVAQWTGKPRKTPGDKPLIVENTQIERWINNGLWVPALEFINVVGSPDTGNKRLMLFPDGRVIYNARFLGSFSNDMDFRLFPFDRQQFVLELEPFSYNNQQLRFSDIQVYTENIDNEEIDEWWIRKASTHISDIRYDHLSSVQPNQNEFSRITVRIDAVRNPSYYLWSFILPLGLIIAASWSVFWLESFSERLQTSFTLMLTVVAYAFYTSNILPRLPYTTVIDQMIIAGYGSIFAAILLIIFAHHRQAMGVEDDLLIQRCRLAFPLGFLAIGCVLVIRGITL", "assay": "two-electrode voltage clamp in Xenopus oocytes; outside-out patch clamp of HEK-293T cells", "type": "cell-based", "data": [{"smiles": "NCCS", "note": "[CA, cysteamine]", "values": [{"measurement": "EC50", "result": "10 ± 0.1", "unit": "mM"}]}]}
